We go through 2 molecules from patent US20040029847A1 (priority 2003, published 2004).

In assay [1] the test system is hERβ. The settings on record: relative binding affinity, estradiol = 100; cited from earlier work.
For assay [2], the system named is hERβ. Briefly: Relative binding affinity (RBA) to hERβ, cited from Kuiper et al. Also noted: species or system human. The settings on record: quotient of RBA to hERβ and hERα. An excerpt: In this case, it is assumed that ERβ predominates in the rat prostates over ERα, and ERα predominates in rat uteri over ERβ.
For assay [3], the system named is estrogen receptor preparations from rat prostates. Nature of the assay: Competitive binding with 3H-estradiol to estrogen receptor from rat prostate cytosol.

For `C[C@]12CC[C@@H]3c4ccc(O)cc4CC[C@H]3[C@@H]1C[C@@H](O)[C@@H]2O` [Estriol], in assay [1], the “hERβ RBA*” value is given as 21.
Estradiol gave an ERβ/ERα in assay [2] of 1. Moreover, the “Rat prost. ER(RBA)” value in assay [3] (rat prostate cytosol, 3H-estradiol as ligand, estradiol = 100) was determined as 100. Further, the “prost. ER/uterus ER” value in assay [3] (ratio of RBA at rat prostate ER to rat uterus ER) was found to be 1. Moreover, the “hERβ RBA*” value in assay [1] is 100.
